Laboratory results published in the supplement of paper PMC10733146.

Tests used:
Experiment in all cases: viability relative to DMSO control (fraction); higher = less drug effect (more viable cells)
Settings in all cases: 48 h
[1] = tested on: primary ALL patient cells (S048)
How it was run: (§1)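 Using 384-well plates with compounds already plated at five concentrations, one well per concentration, 4 × 10^4 primary mononuclear tumour cells were added per well. Cells were Ficoll-isolated from blood or bone marrow or came from processed lymph node, fresh or cryopreserved. They were kept for 48 h at 37 °C and 5% CO2 in RPMI-1640 supplemented with penicillin/streptomycin, L-glutamine and human serum, and viability was read as CellTiter-Glo luminescence relative to the median of 16 inner DMSO wells.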

[2] = tested on: primary AML patient cells (S002)
How it was run: as §1

[3] = tested on: primary AML patient cells (S012)
How it was run: as §1

[4] = tested on: primary AML patient cells (S017)
How it was run: as §1

[5] = tested on: primary AML patient cells (S019)
How it was run: as §1

[6] = tested on: primary AML patient cells (S025)
How it was run: as §1

[7] = tested on: primary AML patient cells (S037)
How it was run: as §1

[8] = tested on: primary AML patient cells (S056)
How it was run: as §1

[9] = tested on: primary AML patient cells (S071)
How it was run: as §1

[10] = tested on: primary AML patient cells (S072)
How it was run: as §1

[11] = tested on: primary AML patient cells (S079)
How it was run: as §1

[12] = tested on: primary AML patient cells (S085)
How it was run: as §1

[13] = tested on: primary AML patient cells (S089)
How it was run: as §1

[14] = tested on: primary AML patient cells (S091)
How it was run: as §1

[15] = tested on: primary BL patient cells (S005)
How it was run: as §1

[16] = tested on: primary CLL patient cells (S031)
How it was run: as §1

[17] = tested on: primary CLL patient cells (S043)
How it was run: as §1

[18] = tested on: primary FL patient cells (S022)
How it was run: as §1

[19] = tested on: primary MCL patient cells (S053)
How it was run: as §1

[20] = tested on: primary MCL patient cells (S068)
How it was run: as §1

CC(=O)Nc1cccc(-n2c(=O)n(C3CC3)c(=O)c3c(Nc4ccc(I)cc4F)n(C)c(=O)c(C)c32)c1 [Trametinib]
viability ([1]; 0.0008 µM): 0.818 | viability ([1]; 0.004 µM): 0.766 | viability ([1]; 0.02 µM): 0.674 | viability ([1]; 0.1 µM): 0.666 | viability ([1]; 0.5 µM): 0.592 | viability ([2]; 0.0008 µM): 0.398 | viability ([2]; 0.004 µM): 0.432 | viability ([2]; 0.02 µM): 0.364 | viability ([2]; 0.1 µM): 0.437 | viability ([2]; 0.5 µM): 0.402 | viability ([3]; 0.0008 µM): 0.799 | viability ([3]; 0.004 µM): 0.808 | viability ([3]; 0.02 µM): 0.45 | viability ([3]; 0.1 µM): 0.406 | viability ([3]; 0.5 µM): 0.306 | viability ([4]; 0.0008 µM): 1.02 | viability ([4]; 0.004 µM): 1.1 | viability ([4]; 0.02 µM): 0.888 | viability ([4]; 0.1 µM): 0.852 | viability ([4]; 0.5 µM): 0.719 | viability ([5]; 0.0008 µM): 0.948 | viability ([5]; 0.004 µM): 0.944 | viability ([5]; 0.02 µM): 0.878 | viability ([5]; 0.1 µM): 0.919 | viability ([5]; 0.5 µM): 0.912 | viability ([6]; 0.0008 µM): 0.74 | viability ([6]; 0.004 µM): 0.618 | viability ([6]; 0.02 µM): 0.644 | viability ([6]; 0.1 µM): 0.561 | viability ([6]; 0.5 µM): 0.554 | viability ([7]; 0.0008 µM): 0.957 | viability ([7]; 0.004 µM): 0.969 | viability ([7]; 0.02 µM): 0.921 | viability ([7]; 0.1 µM): 0.899 | viability ([7]; 0.5 µM): 0.915 | viability ([8]; 0.0008 µM): 0.77 | viability ([8]; 0.004 µM): 0.66 | viability ([8]; 0.02 µM): 0.588 | viability ([8]; 0.1 µM): 0.535 | viability ([8]; 0.5 µM): 0.514 | viability ([9]; 0.0008 µM): 0.8 | viability ([9]; 0.004 µM): 0.789 | viability ([9]; 0.02 µM): 0.757 | viability ([9]; 0.1 µM): 0.744 | viability ([9]; 0.5 µM): 0.708 | viability ([10]; 0.0008 µM): 0.907 | viability ([10]; 0.004 µM): 0.859 | viability ([10]; 0.02 µM): 0.751 | viability ([10]; 0.1 µM): 0.732 | viability ([10]; 0.5 µM): 0.69 | viability ([11]; 0.0008 µM): 0.703 | viability ([11]; 0.004 µM): 0.655 | viability ([11]; 0.02 µM): 0.556 | viability ([11]; 0.1 µM): 0.538 | viability ([11]; 0.5 µM): 0.504 | viability ([12]; 0.0008 µM): 0.667 | viability ([12]; 0.004 µM): 0.618 | viability ([12]; 0.02 µM): 0.484 | viability ([12]; 0.1 µM): 0.456 | viability ([12]; 0.5 µM): 0.415 | viability ([13]; 0.0008 µM): 0.635 | viability ([13]; 0.004 µM): 0.57 | viability ([13]; 0.02 µM): 0.558 | viability ([13]; 0.1 µM): 0.529 | viability ([13]; 0.5 µM): 0.539 | viability ([14]; 0.0008 µM): 0.438 | viability ([14]; 0.004 µM): 0.308 | viability ([14]; 0.02 µM): 0.288 | viability ([14]; 0.1 µM): 0.299 | viability ([14]; 0.5 µM): 0.272 | viability ([15]; 0.0008 µM): 0.943 | viability ([15]; 0.004 µM): 0.964 | viability ([15]; 0.02 µM): 1.01 | viability ([15]; 0.1 µM): 0.984 | viability ([15]; 0.5 µM): 0.912 | viability ([16]; 0.0008 µM): 0.648 | viability ([16]; 0.004 µM): 0.49 | viability ([16]; 0.02 µM): 0.379 | viability ([16]; 0.1 µM): 0.349 | viability ([16]; 0.5 µM): 0.311 | viability ([17]; 0.0008 µM): 0.825 | viability ([17]; 0.004 µM): 0.769 | viability ([17]; 0.02 µM): 0.777 | viability ([17]; 0.1 µM): 0.748 | viability ([17]; 0.5 µM): 0.744 | viability ([18]; 0.0008 µM): 0.845 | viability ([18]; 0.004 µM): 0.986 | viability ([18]; 0.02 µM): 0.851 | viability ([18]; 0.1 µM): 1.18 | viability ([18]; 0.5 µM): 0.824 | viability ([19]; 0.0008 µM): 0.885 | viability ([19]; 0.004 µM): 0.899 | viability ([19]; 0.02 µM): 0.818 | viability ([19]; 0.1 µM): 0.806 | viability ([19]; 0.5 µM): 0.733 | viability ([20]; 0.0008 µM): 0.921 | viability ([20]; 0.004 µM): 0.8 | viability ([20]; 0.02 µM): 0.791 | viability ([20]; 0.1 µM): 0.727 | viability ([20]; 0.5 µM): 0.7

C[C@@H](Oc1cc(-c2cnn(C3CCNCC3)c2)cnc1N)c1c(Cl)ccc(F)c1Cl [Crizotinib]
viability ([1]; 0.024 µM): 0.999 | viability ([1]; 0.12 µM): 1.04 | viability ([1]; 0.6 µM): 0.989 | viability ([1]; 3 µM): 0.638 | viability ([1]; 15 µM): 0.0947 | viability ([2]; 0.024 µM): 1.04 | viability ([2]; 0.12 µM): 1.08 | viability ([2]; 0.6 µM): 1.01 | viability ([2]; 3 µM): 0.928 | viability ([2]; 15 µM): 0.652 | viability ([3]; 0.024 µM): 1 | viability ([3]; 0.12 µM): 1.06 | viability ([3]; 0.6 µM): 0.999 | viability ([3]; 3 µM): 0.992 | viability ([3]; 15 µM): 0.163 | viability ([4]; 0.024 µM): 1.03 | viability ([4]; 0.12 µM): 1.03 | viability ([4]; 0.6 µM): 1.02 | viability ([4]; 3 µM): 0.636 | viability ([4]; 15 µM): 0.299 | viability ([5]; 0.024 µM): 0.982 | viability ([5]; 0.12 µM): 1.11 | viability ([5]; 0.6 µM): 0.911 | viability ([5]; 3 µM): 0.665 | viability ([5]; 15 µM): 0.298 | viability ([6]; 0.024 µM): 0.983 | viability ([6]; 0.12 µM): 1.05 | viability ([6]; 0.6 µM): 1.02 | viability ([6]; 3 µM): 0.94 | viability ([6]; 15 µM): 0.794 | viability ([7]; 0.024 µM): 0.974 | viability ([7]; 0.12 µM): 0.982 | viability ([7]; 0.6 µM): 1.01 | viability ([7]; 3 µM): 0.937 | viability ([7]; 15 µM): 0.586 | viability ([8]; 0.024 µM): 1.13 | viability ([8]; 0.12 µM): 0.919 | viability ([8]; 0.6 µM): 1.07 | viability ([8]; 3 µM): 0.857 | viability ([8]; 15 µM): 0.084 | viability ([9]; 0.024 µM): 0.879 | viability ([9]; 0.12 µM): 0.837 | viability ([9]; 0.6 µM): 0.556 | viability ([9]; 3 µM): 0.363 | viability ([9]; 15 µM): 0.0351 | viability ([10]; 0.024 µM): 0.903 | viability ([10]; 0.12 µM): 0.983 | viability ([10]; 0.6 µM): 0.838 | viability ([10]; 3 µM): 0.602 | viability ([10]; 15 µM): 0.127 | viability ([11]; 0.024 µM): 0.977 | viability ([11]; 0.12 µM): 0.953 | viability ([11]; 0.6 µM): 0.872 | viability ([11]; 3 µM): 0.659 | viability ([11]; 15 µM): 0.256 | viability ([12]; 0.024 µM): 1.04 | viability ([12]; 0.12 µM): 1.02 | viability ([12]; 0.6 µM): 0.822 | viability ([12]; 3 µM): 0.434 | viability ([12]; 15 µM): 0.18 | viability ([13]; 0.024 µM): 0.935 | viability ([13]; 0.12 µM): 0.93 | viability ([13]; 0.6 µM): 0.722 | viability ([13]; 3 µM): 0.359 | viability ([13]; 15 µM): 0.0318 | viability ([14]; 0.024 µM): 0.922 | viability ([14]; 0.12 µM): 0.97 | viability ([14]; 0.6 µM): 0.817 | viability ([14]; 3 µM): 0.249 | viability ([14]; 15 µM): 0.0707 | viability ([15]; 0.024 µM): 0.975 | viability ([15]; 0.12 µM): 0.986 | viability ([15]; 0.6 µM): 0.905 | viability ([15]; 3 µM): 0.766 | viability ([15]; 15 µM): 0.309 | viability ([16]; 0.024 µM): 1.1 | viability ([16]; 0.12 µM): 1.08 | viability ([16]; 0.6 µM): 1.12 | viability ([16]; 3 µM): 0.712 | viability ([16]; 15 µM): 0.194 | viability ([17]; 0.024 µM): 0.95 | viability ([17]; 0.12 µM): 0.977 | viability ([17]; 0.6 µM): 0.949 | viability ([17]; 3 µM): 0.772 | viability ([17]; 15 µM): 0.4 | viability ([18]; 0.024 µM): 1.09 | viability ([18]; 0.12 µM): 1.06 | viability ([18]; 0.6 µM): 1.09 | viability ([18]; 3 µM): 0.959 | viability ([18]; 15 µM): 0.377 | viability ([20]; 0.024 µM): 0.989 | viability ([20]; 0.12 µM): 1.22 | viability ([20]; 0.6 µM): 1.58 | viability ([20]; 3 µM): 1.72 | viability ([20]; 15 µM): 0.816
